14 molecules from PubChem BioAssay AID194 (DTP/NCI, 2004) can be followed below.

The structures appear in SMILES notation. Values joined by “and” are separate entries in the source; they are usually repeats but may differ in a detail not shown here. Equal entries are not always repeated. Results filed as inconclusive are left out.

This test concerns BDF1 mice, B16 melanoma s.c., survival/tumor T/C. The test can be described thus: NCI In Vivo Anticancer Drug Screen. Data for tumor model B16 Melanoma (subcutaneous) in B6D2F1 (BDF1) mice. To be noted: endpoint: median survival time, higher = longer survival. As to the method:
The antitumor activity of compounds was measured in mice bearing transplantable tumors. Survival or tumor size were measured and the results are expressed as the measurement made in the treated group (T) divided by the measurement made in the vehicle treated control group (C). The tumor model used in this assay is B16 Melanoma (subcutaneous) in B6D2F1 (BDF1) mice

[1] abbreviates: dose: 8.0 mg/kg/injection, schedule: Q01DX009 (ip), vehicle: saline.
The mark [2] stands for this setting: dose: 100.0 mg/kg/injection, schedule: Q01DX009 (ip), vehicle: saline with Tween-80.
The mark [3] stands for this setting: dose: 12.0 mg/kg/injection, schedule: Q01DX009 (ip), vehicle: saline.
Setting [4] is: dose: 18.0 mg/kg/injection, schedule: Q01DX009 (ip), vehicle: saline.
Setting [5] is: dose: 12.5 mg/kg/injection, schedule: Q01DX009 (ip), vehicle: other.

`OC(CCl)CN1CC[N+]2(CC1)CC[N+]1(CCN(CC(O)CCl)CC1)CC2` (stereo not drawn): the T/C (dose: 134.0 mg/kg/injection, schedule: Q01DX007 (ip), vehicle: saline) is 162 % of control; the T/C (dose: 200.0 mg/kg/injection, schedule: Q01DX009 (ip), vehicle: saline) was 112 % of control; the T/C (dose: 300.0 mg/kg/injection, schedule: Q01DX007 (ip), vehicle: saline) was 173 % of control; the T/C (dose: 300.0 mg/kg/injection, schedule: Q01DX009 (ip), vehicle: saline) is 161 % of control; the T/C (dose: 670.0 mg/kg/injection, schedule: Q01DX001 (ip), vehicle: saline) was 108 % of control; the T/C (dose: 1000.0 mg/kg/injection, schedule: Q01DX001 (ip), vehicle: saline) was 92 % of control. Moreover, the T/C (dose: 1500.0 mg/kg/injection, schedule: Q01DX001 (ip), vehicle: saline) was 120 % of control.
As for `N[C@H](C(=O)O)[C@@H]1CC(Cl)=NO1`, the T/C was 87 % of control and 114 % of control (dose: 1.0 mg/kg/injection, schedule: Q01DX009 (ip), vehicle: saline); 116 % of control (dose: 1.4 mg/kg/injection, schedule: Q01DX009 (ip), vehicle: saline); 95 % of control and 105 % of control (dose: 2.0 mg/kg/injection, schedule: Q01DX009 (ip), vehicle: saline); 120 % of control (dose: 2.1 mg/kg/injection, schedule: Q01DX009 (ip), vehicle: saline); 124 % of control (dose: 3.2 mg/kg/injection, schedule: Q01DX009 (ip), vehicle: saline); 90 % of control (dose: 4.0 mg/kg/injection, schedule: Q01DX009 (ip), vehicle: saline). Moreover, the T/C by setting is: under setting [1], 108 % of control; (dose: 16.0 mg/kg/injection, schedule: Q01DX009 (ip), vehicle: saline) 101 % of control; (dose: 27.0 mg/kg/injection, schedule: Q04DX003 (ip), vehicle: saline) 120 % of control; (dose: 40.0 mg/kg/injection, schedule: Q01DX001 (ip), vehicle: saline) 103 % of control; (dose: 40.0 mg/kg/injection, schedule: Q04DX003 (ip), vehicle: saline) 119 % of control; (dose: 60.0 mg/kg/injection, schedule: Q01DX001 (ip), vehicle: saline) 113 % of control. The T/C is 124 % of control (dose: 60.0 mg/kg/injection, schedule: Q04DX003 (ip), vehicle: saline) and 112 % of control (dose: 90.0 mg/kg/injection, schedule: Q01DX001 (ip), vehicle: saline).
For the molecule `COC1C(C)OC(OC2CC(C)(O)Cc3cc4c(c(O)c32)C(=O)c2c(O)cc3c(c2C4=O)OC2OC3(C)C(O)C(N(C)C)C2O)C(OC)C1(C)OC` (stereo not drawn), the T/C (dose: 2.5 mg/kg/injection, schedule: Q01DX009 (ip), vehicle: other) was 90 % of control; the T/C (dose: 625.0 micrograms/kg/injection, schedule: Q01DX009 (ip), vehicle: other) is 113 % of control; the T/C (dose: 1250.0 micrograms/kg/injection, schedule: Q01DX009 (ip), vehicle: other) is 95 % of control; the T/C (dose: 2500.0 micrograms/kg/injection, schedule: Q01DX009 (ip), vehicle: other) was 122 % of control; the T/C (dose: 5000.0 micrograms/kg/injection, schedule: Q01DX009 (ip), vehicle: other) was 113 % of control.
For `CCOC(=O)c1csc(-c2csc(CCNC(=O)c3ccccc3)n2)n1`, the T/C (dose: 6.25 mg/kg/injection, schedule: Q01DX009 (ip), vehicle: saline with Tween-80) was 95 % of control; the T/C (dose: 12.5 mg/kg/injection, schedule: Q01DX009 (ip), vehicle: saline with Tween-80) is 102 % of control; the T/C (dose: 25.0 mg/kg/injection, schedule: Q01DX009 (ip), vehicle: saline with Tween-80) is 87 % of control; the T/C (dose: 50.0 mg/kg/injection, schedule: Q01DX009 (ip), vehicle: saline with Tween-80) was 91 % of control; the T/C under setting [2] was 106 % of control.
Consider `CC(=O)NNC(=O)c1ccccn1`, for which the T/C by setting is: (dose: 6.25 mg/kg/injection, schedule: Q01DX009 (ip), vehicle: Klucel (hydroxypropylcellulose) (HPC)) 102 % of control; (dose: 12.5 mg/kg/injection, schedule: Q01DX009 (ip), vehicle: Klucel (hydroxypropylcellulose) (HPC)) 92 % of control; (dose: 25.0 mg/kg/injection, schedule: Q01DX009 (ip), vehicle: Klucel (hydroxypropylcellulose) (HPC)) 86 % of control; (dose: 50.0 mg/kg/injection, schedule: Q01DX009 (ip), vehicle: Klucel (hydroxypropylcellulose) (HPC)) 88 % of control and 98 % of control; (dose: 100.0 mg/kg/injection, schedule: Q01DX009 (ip), vehicle: Klucel (hydroxypropylcellulose) (HPC)) 88 % of control.
Take `CC1(C)N=C(N)N=C(N)N1c1ccc(CCCCc2ccc(Cl)c(S(=O)(=O)F)c2)c(Cl)c1`: the T/C under setting [1] was 119 % of control; the T/C under setting [3] is 110 % of control; the T/C under setting [4] was 107 % of control; the T/C (dose: 27.0 mg/kg/injection, schedule: Q01DX009 (ip), vehicle: saline) was 94 % of control.
`COC(=O)c1csc(-c2csc(CCN)n2)n1`: the T/C by setting is: (dose: 6.25 mg/kg/injection, schedule: Q01DX009 (ip), vehicle: water) 89 % of control; (dose: 12.5 mg/kg/injection, schedule: Q01DX009 (ip), vehicle: water) 98 % of control; (dose: 25.0 mg/kg/injection, schedule: Q01DX009 (ip), vehicle: water) 91 % of control; (dose: 50.0 mg/kg/injection, schedule: Q01DX009 (ip), vehicle: water) 117 % of control; (dose: 100.0 mg/kg/injection, schedule: Q01DX009 (ip), vehicle: water) 102 % of control.
For the molecule `CO[C@H]1C[C@](C)(O)Cc2cc3c(c(O)c21)C(=O)c1c(O)cc2c(c1C3=O)O[C@@H]1O[C@@]2(C)[C@H](O)[C@@H](N(C)C)[C@@H]1O`, the T/C is, setting by setting: (dose: 6.25 mg/kg/injection, schedule: Q01DX009 (ip), vehicle: other) 104 % of control; under setting [5], 95 % of control.
`CC1(C)N=C(N)N=C(N)N1c1ccc(CCCCc2cccc(S(=O)(=O)F)c2)c(Cl)c1`: the T/C under setting [3] is 121 % of control and the T/C under setting [4] was 98 % of control.
Take `ClCC[N-]CC[N-]CCCl.ClCC[N-]CC[N-]CCCl.[O-][Cl+3]([O-])([O-])O.[Zn+2]`: the T/C (dose: 2.5 mg/kg/injection, schedule: Q01DX009 (ip), vehicle: saline with Tween-80) is 102 % of control; the T/C (dose: 5.0 mg/kg/injection, schedule: Q01DX009 (ip), vehicle: saline with Tween-80) was 94 % of control; the T/C (dose: 10.0 mg/kg/injection, schedule: Q01DX009 (ip), vehicle: saline with Tween-80) was 115 % of control; the T/C (dose: 20.0 mg/kg/injection, schedule: Q01DX009 (ip), vehicle: saline with Tween-80) was 89 % of control.
Regarding `CO[C@H]1/C=C/O[C@@]2(C)Oc3c(C)c(O)c4c(O)c(c(/C=N/N5C(C)CN(Cc6ccccc6)CC5C)c(O)c4c3C2=O)NC(=O)/C(C)=C\C=C\[C@H](C)[C@H](O)[C@@H](C)[C@@H](O)[C@@H](C)[C@H](OC(C)=O)[C@@H]1C` (stereo partly drawn), the T/C was 101 % of control (dose: 50.0 mg/kg/injection, schedule: Q02DX Z (oral), vehicle: Klucel (hydroxypropylcellulose) (HPC)); 89 % of control (dose: 100.0 mg/kg/injection, schedule: Q02DX Z (oral), vehicle: Klucel (hydroxypropylcellulose) (HPC)); 86 % of control (dose: 200.0 mg/kg/injection, schedule: Q02DX Z (oral), vehicle: Klucel (hydroxypropylcellulose) (HPC)).
Regarding `CN1c2c(nc(N)[nH]c2=O)NCC1CCNc1ccc(C(=O)NC(CCC(=O)O)C(=O)O)cc1` (stereo not drawn), the T/C (dose: 600.0 mg/kg/injection, schedule: Q04DX003 (ip), vehicle: saline) was 118 % of control and 123 % of control; the T/C (dose: 800.0 mg/kg/injection, schedule: Q01DX001 (ip), vehicle: saline) is 108 % of control; the T/C (dose: 800.0 mg/kg/injection, schedule: Q04DX003 (ip), vehicle: saline) is 113 % of control; the T/C (dose: 900.0 mg/kg/injection, schedule: Q04DX003 (ip), vehicle: saline) is 159 % of control; the T/C (dose: 1200.0 mg/kg/injection, schedule: Q01DX001 (ip), vehicle: saline) was 119 % of control and 121 % of control; the T/C (dose: 1800.0 mg/kg/injection, schedule: Q01DX001 (ip), vehicle: saline) was 121 % of control. Also, the T/C (dose: 2400.0 mg/kg/injection, schedule: Q01DX001 (ip), vehicle: saline) is 121 % of control.
As for `CCSC(=O)N1c2ccc(OC)cc2C=CC1C#N` (stereo not drawn), the T/C reads like this: under setting [2], 109 % of control; (dose: 200.0 mg/kg/injection, schedule: Q01DX009 (ip), vehicle: saline with Tween-80) 114 % of control.
In the case of `CC(C)CCC[C@@H](C)[C@H]1CC[C@H]2[C@@H]3CC=C4C[C@@H](O)CC[C@]4(C)[C@H]3CC[C@]12C`, the T/C is 120 % of control under setting [5]; 96 % of control (dose: 25.0 mg/kg/injection, schedule: Q01DX009 (ip), vehicle: other); 119 % of control (dose: 50.0 mg/kg/injection, schedule: Q01DX009 (ip), vehicle: other).
